Experiment [1] concerns the target TrkA (histidine-tagged recombinant human TrkA, cytoplasmic domain) (Homo sapiens (Human), UniProt P04629). Put plainly: TrkA ELISA Assay. It is filed as biochemical. As to conditions: Table 1; ELISA, 500 μM ATP; read-out: TrkA Enzyme IC50. The method, boiled down:
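ELISA read-out: a peroxidase-linked anti-phosphotyrosine antibody (PY20, 0.2 μg/mL) with TMB substrate, absorbance at 450 nm after acid stop. The plate-bound substrate was poly(Glu,Ala,Tyr; 6:3:1) at 0.025 mg/mL, phosphorylated by the recombinant His-tagged human TrkA cytoplasmic domain in the presence of inhibitors.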
On the technique in general: An ELISA detects its analyte on a solid surface through an enzyme-linked reagent.

For the next experiment, the target named is Human Jak2 kinase domain (Homo sapiens (Human), UniProt O60674). Put plainly: Jak2 Inhibition Assay (Omnia kinase assay). It counts as biochemical. The note with it: Table 1; 500 μM ATP; >1000 nM when >50% inhibition not observed at 1000 nM; read-out: Jak2 Enzyme IC50.
Human Jak2 kinase domain, sequence (O60674 808-1132): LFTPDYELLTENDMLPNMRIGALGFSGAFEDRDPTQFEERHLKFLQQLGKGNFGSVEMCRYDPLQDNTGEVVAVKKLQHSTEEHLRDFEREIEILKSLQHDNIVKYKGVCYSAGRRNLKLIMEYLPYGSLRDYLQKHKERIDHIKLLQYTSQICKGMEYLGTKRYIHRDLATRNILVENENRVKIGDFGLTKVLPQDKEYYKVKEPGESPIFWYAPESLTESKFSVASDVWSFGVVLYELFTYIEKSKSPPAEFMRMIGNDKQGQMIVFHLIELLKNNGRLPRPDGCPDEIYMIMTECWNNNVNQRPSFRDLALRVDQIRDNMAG

The results in this text go back to US8791123B2, “Substituted pyrazolo[1,5-a]pyrimidine compounds as Trk kinase inhibitors” (Array Biopharma, Inc., priority 2009, dated 2014).

TrkA (histidine-tagged recombinant human TrkA, cytoplasmic domain), sequence (P04629 440-796): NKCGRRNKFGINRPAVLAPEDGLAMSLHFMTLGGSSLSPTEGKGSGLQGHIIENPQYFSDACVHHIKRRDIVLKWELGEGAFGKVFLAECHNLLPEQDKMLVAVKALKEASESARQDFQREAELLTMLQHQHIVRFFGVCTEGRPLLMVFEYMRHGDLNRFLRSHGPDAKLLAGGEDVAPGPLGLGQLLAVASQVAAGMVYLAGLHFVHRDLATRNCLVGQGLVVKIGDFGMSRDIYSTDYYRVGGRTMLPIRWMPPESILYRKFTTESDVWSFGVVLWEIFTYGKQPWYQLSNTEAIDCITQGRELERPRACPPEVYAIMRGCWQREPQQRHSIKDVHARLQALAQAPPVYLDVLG

The IC50 is the concentration that inhibits the measured activity by half. As for `CC(C)(O)CNC(=O)c1cnn2ccc(N3CCC[C@@H]3c3cc(F)ccc3F)nc12` [Example 17, (R)-5-(2-(2,5-difluorophenyl)pyrrolidin-1-yl)-N-(2-hydroxy-2-methylpropyl)pyrazolo[1,5-a]pyrimidine-3-carboxamide], the IC50 was 0.00215 µM in experiment [1] and > 1 µM at Human Jak2 kinase domain.
As for `Cn1cc(F)cc([C@H]2CCCN2c2ccn3ncc(C(=O)Nc4ccc(F)cn4)c3n2)c1=O` [Example 239, (R)-5-(2-(5-fluoro-1-methyl-2-oxo-1,2-dihydropyridin-3-yl)pyrrolidin-1-yl)-N-(5-fluoropyridin-2-yl)pyrazolo[1,5-a]pyrimidine-3-carboxamide], the IC50 in experiment [1] was 0.0101 µM; on Human Jak2 kinase domain, > 1 µM.
Regarding `Nc1ncc(F)cc1[C@H]1CCCN1c1ccn2ncc(C(=O)N3CCC3)c2n1` [Example 221, (R)-(5-(2-(2-amino-5-fluoropyridin-3-yl)pyrrolidin-1-yl)pyrazolo[1,5-a]pyrimidin-3-yl)(azetidin-1-yl)methanone], the figures for the IC50 (in experiment [1]; on Human Jak2 kinase domain) were 0.0493 µM and > 1 µM, respectively.
Turning to `COc1ncc(F)cc1[C@H]1CCCN1c1ccn2ncc(C(=O)N3CC(C)(O)C3)c2n1` [Example 147, (R)-(5-(2-(5-fluoro-2-methoxypyridin-3-yl)pyrrolidin-1-yl)pyrazolo[1,5-a]pyrimidin-3-yl)(3-hydroxy-3-methylazetidin-1-yl)methanone], the IC50 in experiment [1] is 0.0308 µM; at Human Jak2 kinase domain, > 1 µM.
As to `CC(C)(CO)NC(=O)c1cnn2ccc(N3CCC[C@@H]3c3cncc(F)c3)nc12` [Example 132, (R)-5-(2-(5-fluoropyridin-3-yl)pyrrolidin-1-yl)-N-(1-hydroxy-2-methylpropan-2-yl)pyrazolo[1,5-a]pyrimidine-3-carboxamide], the figures for the IC50 (in experiment [1]; at Human Jak2 kinase domain) were 0.0444 µM and > 1 µM, respectively.
For `C[C@@H](CO)NC(=O)c1cnn2ccc(N3CCC[C@@H]3c3cncc(F)c3)nc12` [Example 116, 5-((R)-2-(5-fluoropyridin-3-yl)pyrrolidin-1-yl)-N-((S)-1-hydroxypropan-2-yl)pyrazolo[1,5-a]pyrimidine-3-carboxamide] the same measures were 0.0262 µM and > 1 µM.
For `CC(C)[C@@H](CO)NC(=O)c1cnn2ccc(N3CCC[C@@H]3c3cc(F)ccc3F)nc12` [Example 179, 5-((R)-2-(2,5-difluorophenyl)pyrrolidin-1-yl)-N-((S)-1-hydroxy-3-methylbutan-2-yl)pyrazolo[1,5-a]pyrimidine-3-carboxamide], the IC50 is 0.0085 µM in experiment [1] and > 1 µM on Human Jak2 kinase domain.
For the compound `O=C(NC1CC1)c1cnn2ccc(N3CCC[C@@H]3c3cc(F)ccc3OCCN3CCOCC3)nc12` [Example 87, (R)—N-cyclopropyl-5-(2-(5-fluoro-2-(2-morpholinoethoxy)phenyl)pyrrolidin-1-yl)pyrazolo[1,5-a]pyrimidine-3-carboxamide], the IC50 in experiment [1] was 0.0161 µM; at Human Jak2 kinase domain, > 1 µM.
Taken in the same sequence, the figures for `COc1ncc(F)cc1[C@H]1CCCN1c1ccn2ncc(C(=O)NCC(O)CO)c2n1` (stereo partly drawn) [Example 149, N-(2,3-dihydroxypropyl)-5-((R)-2-(5-fluoro-2-methoxypyridin-3-yl)pyrrolidin-1-yl)pyrazolo[1,5-a]pyrimidine-3-carboxamide] were 0.0061 µM and > 1 µM.
Take `CC(C)(CF)NC(=O)c1cnn2ccc(N3CCC[C@@H]3c3cc(F)ccc3F)nc12` [Example 40, (R)-5-(2-(2,5-difluorophenyl)pyrrolidin-1-yl)-N-(1-fluoro-2-methylpropan-2-yl)pyrazolo[1,5-a]pyrimidine-3-carboxamide]: the IC50 in experiment [1] was 0.0008 µM; at Human Jak2 kinase domain, > 1 µM.
On to `O=C(Nc1ccc(F)cn1)c1cnn2ccc(N3CCC[C@@H]3c3cncc(F)c3)nc12` [Example 95, (R)—N-(5-fluoropyridin-2-yl)-5-(2-(5-fluoropyridin-3-yl)pyrrolidin-1-yl)pyrazolo[1,5-a]pyrimidine-3-carboxamide], for which the values for the IC50 (in experiment [1]; at Human Jak2 kinase domain) were 0.0054 µM and > 1 µM, respectively.
